Source: patent publication US10597388B2, “Pyridazinone herbicides” (FMC CORPORATION, priority 2014, dated 2020)

What was measured:
Assay type in all cases: in vivo
[1] = tested on: barley, spring (spring barley, Hordeum vulgare); assay: Test D controlled growth environment herbicide test, pre- and postemergence; conditions: for Barley, Spring plant response rating / Plant response rating (scale of 0 to 100), Barley, Spring: 31 g ai/ha
How it was run: (§1)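 Rating is visual, 0–100 scale (100 = complete control), made against untreated plants 14–21 d after treatment in controlled growth conditions. Postemergence sprays went onto 1- to 4-leaf plants in peat medium; preemergence sprays onto silt loam after sowing; formulation included a surfactant.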

[2] = tested on: Canada thistle (Cirsium arvense); assay: as above; conditions: for Canada Thistle plant response rating / Plant response rating (scale of 0 to 100), Canada Thistle: 31 g ai/ha
How it was run: as §1

[3] = tested on: geranium, cutleaf (cutleaf geranium, Geranium dissectum); assay: as above
How it was run: as §1

[4] = tested on: wild poinsettia (Euphorbia heterophylla); assay: Test E greenhouse herbicide test, pre- and postemergence
How it was run: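 Greenhouse pots; preemergence on silt loam, postemergence on plants 1- to 4-leaf (2 to 18 cm) grown in peat, vermiculite and nutrient medium. Test chemicals formulated in non-phytotoxic solvent with surfactant. Ratings taken after 14 to 21 d.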

[5] = tested on: waterhemp_RES1 (ALS & Triazine resistant common waterhemp, Amaranthus rudis); assay: Test E greenhouse herbicide test, postemergence
How it was run: (§2)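 Visual injury scored 0 (no effect) to 100 (complete control) versus untreated plants, 14 to 21 d after treatment in the greenhouse. Plants were treated postemergence at 1- to 4-leaf stage, 2–18 cm height, in peat-moss/vermiculite medium.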

[6] = tested on: waterhemp_RES2 (ALS & HPPD resistant common waterhemp, Amaranthus rudis); assay: Test E greenhouse herbicide test, postemergence
How it was run: as §2

[7] = Postemergence, scale 0 to 100 (0 no effect, 100 complete control)
[8] = Postemergence, 125 g ai/ha, visual rating on scale 0 (no effect) to 100 (complete control), 14 to 21 d
[9] = Postemergence, 250 g ai/ha, scale 0 to 100 (0 no effect, 100 complete control)
[10] = Preemergence, 62 g ai/ha, scale 0 to 100 (0 no effect, 100 complete control)
[11] = Preemergence, 125 g ai/ha, scale 0 to 100 (0 no effect, 100 complete control)
[12] = Preemergence, 250 g ai/ha, scale 0 to 100 (0 no effect, 100 complete control)
[13] = postemergence, 62 g ai/ha, scale 0 to 100, 0 no effect, 100 complete control
[14] = Postemergence, 31 g ai/ha, scale 0 to 100 (0 no effect, 100 complete control)
[15] = 62 g ai/ha, Postemergence, scale 0 to 100 (0 no effect, 100 complete control)
[16] = 125 g ai/ha, Postemergence, scale 0 to 100 (0 no effect, 100 complete control)
[17] = Postemergence, 31 g ai/ha, visual, scale 0 no effect to 100 complete control
[18] = 16 g ai/ha, visual, scale 0 no effect to 100 complete control
[19] = 31 g ai/ha, visual, scale 0 no effect to 100 complete control
[20] = 125 g ai/ha, scale 0 to 100 (0 no effect, 100 complete control)
[21] = 250 g ai/ha, scale 0 to 100 (0 no effect, 100 complete control)

SMILES | Barley, Spring plant response rating [1, 7] | Plant response rating, Barley, Spring [1, 8] | Plant response rating, Barley, Spring [1, 9] | Plant response rating (scale of 0 to 100), Barley, Spring ([1]; Preemergence) | Plant response rating, Barley, Spring [1, 10] | Plant response rating, Barley, Spring [1, 11] | Plant response rating, Barley, Spring [1, 12] | Plant response rating, Barley, Spring [1, 13] | Canada Thistle plant response rating [2, 7] | Plant response rating, Canada Thistle [2, 8] | Plant response rating, Canada Thistle [2, 9] | Plant response rating (scale of 0 to 100), Canada Thistle ([2]; Preemergence) | Plant response rating, Canada Thistle [2, 10] | Plant response rating, Canada Thistle [2, 11] | Plant response rating, Canada Thistle [2, 12] | Plant response rating, Canada Thistle [2, 13] | Geranium, Cutleaf plant response rating [3, 14] | Plant response rating, Geranium, Cutleaf [3, 8] | Plant response rating, Geranium, Cutleaf [3, 9] | Plant response rating (scale of 0 to 100), Geranium, Cutleaf ([3]; Preemergence, 31 g ai/ha) | other results
CC(=O)Oc1c(C)nn(C)c(=O)c1-c1ccc(F)c2ccccc12 [Compound 90] | 10 | 35 | 40 | 0 | 0 | 20 | 35 | 25 | 98 | 100 | 98 | 50 | 95 | 100 | 100 | 100 | 45 | 75 | 95 | 0 | Plant response rating (scale of 0 to 100), Geranium, Cutleaf ([3]; Preemergence, 62 g ai/ha): 60; Plant response rating, Geranium, Cutleaf [3, 11]: 65; Plant response rating, Geranium, Cutleaf [3, 12]: 90; Plant response rating, Geranium, Cutleaf [3, 13]: 65; Plant response rating, Poinsettia, Wild [4, 15]: 50; Plant response rating, Poinsettia, Wild [4, 16]: 60; Plant response rating, Poinsettia, Wild ([4]; Postemergence, 16 g ai/ha, visual, scale 0 no effect to 100 complete control): 20; Plant response rating, Poinsettia, Wild [4, 17]: 35; Plant response rating, Waterhemp_RES1 [5, 18]: 50; Plant response rating, Waterhemp_RES1 [5, 19]: 50; Plant response rating, Waterhemp_RES1 [5, 20]: 80; Plant response rating, Waterhemp_RES2 [6, 18]: 50; Plant response rating, Waterhemp_RES2 [6, 19]: 50; Plant response rating, Waterhemp_RES2 [6, 20]: 70
CC(=O)Oc1c(C)nn(C)c(=O)c1-c1c(C)cc(C)c2ccccc12 [Compound 153] | 5 | 15 | 30 | 0 | 0 | 25 | 40 | 5 | 98 | 100 | 100 | 100 | 100 | 100 | 100 | 98 | 75 | 90 | 98 | 35 | Plant response rating (scale of 0 to 100), Geranium, Cutleaf ([3]; Preemergence, 62 g ai/ha): 75; Plant response rating, Geranium, Cutleaf [3, 11]: 85; Plant response rating, Geranium, Cutleaf [3, 12]: 90; Plant response rating, Geranium, Cutleaf [3, 13]: 90; Plant response rating, Poinsettia, Wild [4, 15]: 30; Plant response rating, Poinsettia, Wild [4, 16]: 50; Plant response rating, Poinsettia, Wild ([4]; 125 g ai/ha, Preemergence, scale 0 to 100 (0 no effect, 100 complete control)): 60; Plant response rating, Poinsettia, Wild ([4]; 250 g ai/ha, Postemergence, scale 0 to 100 (0 no effect, 100 complete control)): 75; Plant response rating, Poinsettia, Wild [4, 17]: 20; Plant response rating, Poinsettia, Wild ([4]; Preemergence, 31 g ai/ha, scale 0 to 100, 0 no effect, 100 complete control): 40; Plant response rating, Poinsettia, Wild ([4]; Preemergence, 250 g ai/ha, visual, scale 0 no effect to 100 complete control): 75; Plant response rating, Poinsettia, Wild ([4]; Preemergence, scale 0 to 100, 0 no effect, 100 complete control): 50; Plant response rating, Waterhemp_RES1 [5, 19]: 50; Plant response rating, Waterhemp_RES1 [5, 20]: 50; Plant response rating, Waterhemp_RES1 [5, 21]: 60; Plant response rating, Waterhemp_RES2 [6, 19]: 10; Plant response rating, Waterhemp_RES2 [6, 20]: 30; Plant response rating, Waterhemp_RES2 [6, 21]: 50
